# Several values for one entry are separate records, joined by “and”; a condition that tells them apart may be missing. Identical values can stand only once.
# Key:
# [1] = tested on: KRAS^G12D PDAC cell lines; assay: Western blot time course of RAS signalling in KRAS^G12D PDAC cell lines; type: cell-based, human; conditions: KRAS^G12D PDAC cells in culture, 2 h to 48 h
# Protocol: Total ERK and vinculin were used as loading controls. […] Source Data
# Cells were lysed with MSD Tris Lysis Buffer (MSD, R60TX-2) or a buffer of 1% Triton X-100, 20 mM Tris-HCl, 150 mM NaCl, and 1 mM EDTA, both supplemented with protease and phosphatase inhibitors. Lysates were cleared by centrifugation and quantified by BCA assay (Pierce, 23225). […] Image Studio Lite (Version 5.2.5) and Image Lab (Version 6.1.0 build 7) software were used for data analysis.
# [2] = tested on: Pa16C cells expressing MEK1 mutants; assay: Proliferation (Calcein AM) of Pa16C cells expressing MEK1 mutants; type: cell-based, human
# [3] = target: T1, CYPA (Homo sapiens, UniProt P62937); assay: CYPA binding affinity (Kd1), SPR; conditions: steady state, (95% CI)
# T1 construct: His6-TEV-AviTag-CYPA (full-length); His6-TEV (N); made in house; host or cells: BL21(DE3) Escherichia coli
# Protocol: The binding affinity of compounds for CYPA (Kd1) was assessed by SPR on a Biacore 8K instrument as previously described.
# [4] = tested on: Capan-1 cells; assay: Cellular ERK phosphorylation (pERK); type: cell-based; conditions: Homo sapiens; Capan-1 (KRAS^G12V PDAC); (95% CI)
# [5] = tested on: A375 cells; assay: Cellular ERK phosphorylation (pERK); type: cell-based, human; conditions: Homo sapiens, A-375; A375 (BRAF^V600E)
# [6] = tested on: Capan-1 cells; assay: Cell proliferation (CTG); type: cell-based; conditions: Homo sapiens; Capan-1, CTG; (95% CI)
# Protocol: (§1) Alternatively, cells were seeded in round-bottom ultra-low attachment 96-well plates, centrifuged at 1,000 rpm for 10 min to pellet the cells, and incubated overnight or up to 72 h to allow for 3D spheroid formation. […] Cell viability was determined by CellTiter-Glo 2.0 reagent (2D CTG) (Promega, G9243) or 3D CellTiter-Glo reagent (3D CTG) (Promega, G9683) according to the manufacturer’s protocols. Luminescence was detected using a SpectraMax M5 Plate Reader (Molecular Devices) of Perkin Elmer Enspire. Luminescence signal was normalized to vehicle-treated wells (normalized signal (%) = (luminescence (treated)/mean luminescence (vehicle)) × 100%). […] Data were plotted as log [inhibitor (M)], and a four-parameter sigmoidal concentration response model was fitted to the data to calculate EC50. […] Pa16C MEK1 mutant cells were evaluated by live-cell counting using Calcein AM and a SpectraMax i3X multi-mode detection platform (Molecular Devices). Growth percentages were calculated by normalizing the treated cell counts to their respective untreated cell counts.
# [7] = tested on: A375 cells; assay: Cell proliferation (CTG); type: cell-based, human; conditions: Homo sapiens, A-375; A375, CTG; (95% CI)
# Protocol: as §1
# [8] = Oral bioavailability in mice (LC-MS/MS of blood); type: in vivo; conditions: mouse, whole blood, read-out: Oral Bioavailability m%F
# [9] = target: T2, KRAS^G12V (Homo sapiens, UniProt P01116+P62937, G12V); assay: RAS binding affinity of compound-bound CYPA (Kd2), SPR; design: His6-TEV (N); made in house; host or cells: BL21(DE3) Escherichia coli; conditions: steady state, (95% CI)
# [10] = target: T2, KRAS^G12V; assay: Biochemical RAS–RAF (BRAF RBD) disruption, TR-FRET; design: His6-TEV (N); made in house; host or cells: BL21(DE3) Escherichia coli
# Excerpt: Time-resolved fluorescence resonance energy transfer (TR-FRET) was used as previously described to assess disruption of the interactions between wild-type RAS or the mutant oncogenic RAS proteins and the RAS-binding domain of BRAF, and to assess the induction of interactions between the RAS proteins and CYPA[12].
smiles,measurement,setting,value
"C#Cc1c(F)ccc2cc(O)cc(-c3ncc4c(N5CC6CCC(C5)N6)nc(OC[C@@]56CCCN5C[C@H](F)C6)nc4c3F)c12 [MRTX1133, reference compound]",pERK suppression over time,[1],rebounded by 48 h
same,Proliferation of Pa16C cells expressing MEK1 mutant constructs,"[2]; MEK1E102-I103del, inhibitor 0.046 nM",125.8 and 122.1 and 120.54 and 95.05
same,Proliferation of Pa16C cells expressing MEK1 mutant constructs,"[2]; MEK1E102-I103del, inhibitor 0.412 nM",113.2 and 113.4 and 113.54 and 82.15
same,Proliferation of Pa16C cells expressing MEK1 mutant constructs,"[2]; MEK1E102-I103del, inhibitor 1.235 nM",110 and 114.8 and 110.17 and 83.99
same,Proliferation of Pa16C cells expressing MEK1 mutant constructs,"[2]; MEK1E102-I103del, inhibitor 3.704 nM",89.5 and 104.7 and 87.18 and 77.13
same,Proliferation of Pa16C cells expressing MEK1 mutant constructs,"[2]; MEK1K57N, inhibitor 0.046 nM",113.3 and 92 and 123.41 and 119.36
same,Proliferation of Pa16C cells expressing MEK1 mutant constructs,"[2]; MEK1K57N, inhibitor 0.412 nM",108.9 and 110.1 and 130.35 and 129.87
same,Proliferation of Pa16C cells expressing MEK1 mutant constructs,"[2]; MEK1K57N, inhibitor 1.235 nM",119.4 and 130.2 and 127.87 and 133.27
same,Proliferation of Pa16C cells expressing MEK1 mutant constructs,"[2]; MEK1K57N, inhibitor 3.704 nM",112.2 and 126.4 and 116.3 and 122.06
same,Proliferation of Pa16C cells expressing MEK1 mutant constructs,"[2]; MEK1Q56P, inhibitor 0.046 nM",116.6 and 110 and 105 and 106.72
same,Proliferation of Pa16C cells expressing MEK1 mutant constructs,"[2]; MEK1Q56P, inhibitor 0.412 nM",113.89 and 123.5 and 112.2 and 128.92
same,Proliferation of Pa16C cells expressing MEK1 mutant constructs,"[2]; MEK1Q56P, inhibitor 1.235 nM",123.05 and 112.4 and 128.9 and 131.08
same,Proliferation of Pa16C cells expressing MEK1 mutant constructs,"[2]; MEK1Q56P, inhibitor 3.704 nM",108.45
same,Proliferation of Pa16C cells expressing MEK1 mutant constructs,"[2]; MEK1S218D/S222D, inhibitor 0.046 nM",106.52 and 116.35 and 117.97 and 101.1
same,Proliferation of Pa16C cells expressing MEK1 mutant constructs,"[2]; MEK1S218D/S222D, inhibitor 0.412 nM",107.39 and 112.33 and 125.31 and 99.77
same,Proliferation of Pa16C cells expressing MEK1 mutant constructs,"[2]; MEK1S218D/S222D, inhibitor 1.235 nM",101.82 and 118.84 and 117.94 and 98.18
same,Proliferation of Pa16C cells expressing MEK1 mutant constructs,"[2]; MEK1S218D/S222D, inhibitor 3.704 nM",93.55 and 118.16 and 86.21 and 93.79
same,Proliferation of Pa16C cells expressing MEK1 mutant constructs,"[2]; MEK1WT, inhibitor 0.046 nM",112.3 and 102.3 and 116.1 and 105.31 and 102.33
same,Proliferation of Pa16C cells expressing MEK1 mutant constructs,"[2]; MEK1WT, inhibitor 0.412 nM",119.4 and 93.5 and 109.72 and 103.89 and 97.19
same,Proliferation of Pa16C cells expressing MEK1 mutant constructs,"[2]; MEK1WT, inhibitor 1.235 nM",110 and 85.2 and 91.69 and 105.96 and 84.4
same,Proliferation of Pa16C cells expressing MEK1 mutant constructs,"[2]; MEK1WT, inhibitor 3.704 nM",88.3 and 70.7 and 61.19
CCn1c(-c2cccnc2[C@H](C)OC)c2c3cc(ccc31)-c1cccc(c1)C[C@H](NC(=O)[C@H](C(C)C)N(C)C(=O)[C@H]1CCN(C(C)=O)C1)C(=O)N1CCC[C@H](N1)C(=O)OCC(C)(C)C2 [Compound 1],Kd,[3],0.862 µM
same,EC50,[4],0.632 µM
same,EC50,[5],> 10 µM
same,EC50,[6],0.965 µM
same,EC50,[7],6.41 µM
same,bioavailability,[8],5%
same,Kd,[9],6.55 µM
same,EC50,[10],4.4 µM

# — paper PMC11111408, “Concurrent inhibition of oncogenic and wild-type RAS-GTP for cancer therapy” (Nature, 2024)
